# Biological target: Human immunodeficiency virus type 1 reverse transcriptase (Human immunodeficiency virus 1, UniProt Q72547)
# Test: Inhibitory concentration against human immunodeficiency virus type 1 reverse transcriptase
row,SMILES,IC50 [µM]
1,Cc1cn([C@H]2C[C@H](N=[N+]=[N-])[C@@H](CO[P@](=O)(O)O[P@](=O)(O)OP(=O)(O)O)O2)c(=O)[nH]c1=O [ZIDOVUDINE TRIPHOSPHATE],2.1
2,C#C[C@]1(COP(=O)(O)OP(=O)(O)OP(=O)(O)O)O[C@@H](n2cc(C)c(=O)[nH]c2=O)C[C@@H]1O,3.28

# Reference: ChEMBL document CHEMBL1141972, “4'C-ethynyl-thymidine acts as a chain terminator during DNA-synthesis catalyzed by HIV-1 reverse transcriptase” (Bioorg Med Chem Lett, 2005)
